Data: US12686673B2 (Blueprint Medicines Corporation, priority 2020, dated 2026)
Like-named read-outs stand apart in the source and are kept apart here.

Assays:
Format in all cases: cell-based
[1] = biological target: EGFR(D770_N771insSVD) expressing Ba/F3 stable cell line (Homo sapiens, UniProt P00533, DUP768-770, cells depend on it); assay: Cellular proliferation (Alamar Blue) assay, EGFR D770_N771insSVD Ba/F3; details: 72 hr, read-out: D770 IC50
Experimental: (§1) • 1. EGFR(D770_N771insSVD) expressing Ba/F3 stable cell line • 2. EGFR (A767_dupASV) expressing Ba/F3 stable cell line • 3. A431 cells • 4. EGFR (H773insNPH) expressing Ba/F3 stable cell line • 5. HER2 (A775_G776insYVMA) expressing Ba/F3 stable cell line Assay Procedure: • 1. Seed cells at 5000 for A431 and 15,000 cells for Ba/F3 in 100 μL/well in complete media (for A431: DMEM with […] and for Ba/F3 cells: RPMI with 10% FBS) in 96-well tissue culture plate. Leave outer wells without cells for background measurements. Incubate at 37 degree Celsius in […] humidified incubator for 16-18 hours. • 2. Add 0.025 ml of 5× concentration compound dilution or DMSO control. Final compound concentration range is 10-0.0005 μM prepared in 3-fold serial dilutions. Incubate for 72 hr at 37 degree Celsius in […] humidified incubator. • 3. Add 0.0125 ml Alamar Blue™ reagent to each well with multi-channel pipette and tap gently on each side of the plate to mix. Incubate for 3 hours at 37 degree Celsius in 5% CO2 humidified incubator. • 4. […] Data analysis was performed using XLfit 5.5.0.5.

A431 cells = assay: Cellular proliferation (Alamar Blue) assay, A431
Experimental: as §1

[2] = biological target: EGFR (A767_dupASV) expressing Ba/F3 stable cell line (Homo sapiens, UniProt P00533, DUP767-769, cells depend on it); assay: Cellular proliferation (Alamar Blue) assay, EGFR A767_dupASV Ba/F3; details: 72 hr, read-out: A767 IC50
Experimental: as §1

[3] = Homo sapiens, A-431; A431 cells, Alamar Blue, 72 hr; read-out: A431 IC50
[4] = Homo sapiens, A-431; A431 cells, 72 hr, Alamar Blue; read-out: A431 IC50

EGFR(D770_N771insSVD) expressing Ba/F3 stable cell line, sequence (P00533 with tags, fused parts or gaps DUP768-770): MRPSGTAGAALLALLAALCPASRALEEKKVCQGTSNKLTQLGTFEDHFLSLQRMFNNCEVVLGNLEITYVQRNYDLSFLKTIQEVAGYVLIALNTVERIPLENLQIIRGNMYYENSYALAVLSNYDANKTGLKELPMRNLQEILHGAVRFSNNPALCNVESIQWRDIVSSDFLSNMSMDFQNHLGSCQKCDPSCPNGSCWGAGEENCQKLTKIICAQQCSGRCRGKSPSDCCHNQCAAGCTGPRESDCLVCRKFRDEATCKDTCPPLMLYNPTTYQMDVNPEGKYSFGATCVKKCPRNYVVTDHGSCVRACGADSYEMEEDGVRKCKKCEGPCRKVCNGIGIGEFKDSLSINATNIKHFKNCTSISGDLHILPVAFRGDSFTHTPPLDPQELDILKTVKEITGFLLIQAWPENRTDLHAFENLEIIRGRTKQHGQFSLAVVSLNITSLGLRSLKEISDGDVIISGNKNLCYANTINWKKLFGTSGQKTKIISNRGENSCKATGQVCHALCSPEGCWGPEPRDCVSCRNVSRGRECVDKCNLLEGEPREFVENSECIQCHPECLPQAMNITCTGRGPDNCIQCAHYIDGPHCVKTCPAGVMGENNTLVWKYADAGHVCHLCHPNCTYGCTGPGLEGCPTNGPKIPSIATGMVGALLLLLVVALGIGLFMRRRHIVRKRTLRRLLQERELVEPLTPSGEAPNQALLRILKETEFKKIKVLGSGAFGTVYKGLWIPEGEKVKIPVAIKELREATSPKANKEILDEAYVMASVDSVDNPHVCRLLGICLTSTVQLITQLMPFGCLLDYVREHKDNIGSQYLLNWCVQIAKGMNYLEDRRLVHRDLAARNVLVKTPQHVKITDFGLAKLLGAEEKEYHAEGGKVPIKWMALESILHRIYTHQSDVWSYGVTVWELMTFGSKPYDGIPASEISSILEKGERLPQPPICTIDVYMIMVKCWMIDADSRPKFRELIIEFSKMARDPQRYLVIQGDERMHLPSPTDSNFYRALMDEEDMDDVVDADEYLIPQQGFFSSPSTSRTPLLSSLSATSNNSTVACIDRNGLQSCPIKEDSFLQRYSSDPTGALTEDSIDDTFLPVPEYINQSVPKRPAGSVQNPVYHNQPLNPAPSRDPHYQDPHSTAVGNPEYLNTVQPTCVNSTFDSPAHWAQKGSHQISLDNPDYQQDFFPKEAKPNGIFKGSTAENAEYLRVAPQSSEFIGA
EGFR (A767_dupASV) expressing Ba/F3 stable cell line, sequence (P00533 with tags, fused parts or gaps DUP767-769): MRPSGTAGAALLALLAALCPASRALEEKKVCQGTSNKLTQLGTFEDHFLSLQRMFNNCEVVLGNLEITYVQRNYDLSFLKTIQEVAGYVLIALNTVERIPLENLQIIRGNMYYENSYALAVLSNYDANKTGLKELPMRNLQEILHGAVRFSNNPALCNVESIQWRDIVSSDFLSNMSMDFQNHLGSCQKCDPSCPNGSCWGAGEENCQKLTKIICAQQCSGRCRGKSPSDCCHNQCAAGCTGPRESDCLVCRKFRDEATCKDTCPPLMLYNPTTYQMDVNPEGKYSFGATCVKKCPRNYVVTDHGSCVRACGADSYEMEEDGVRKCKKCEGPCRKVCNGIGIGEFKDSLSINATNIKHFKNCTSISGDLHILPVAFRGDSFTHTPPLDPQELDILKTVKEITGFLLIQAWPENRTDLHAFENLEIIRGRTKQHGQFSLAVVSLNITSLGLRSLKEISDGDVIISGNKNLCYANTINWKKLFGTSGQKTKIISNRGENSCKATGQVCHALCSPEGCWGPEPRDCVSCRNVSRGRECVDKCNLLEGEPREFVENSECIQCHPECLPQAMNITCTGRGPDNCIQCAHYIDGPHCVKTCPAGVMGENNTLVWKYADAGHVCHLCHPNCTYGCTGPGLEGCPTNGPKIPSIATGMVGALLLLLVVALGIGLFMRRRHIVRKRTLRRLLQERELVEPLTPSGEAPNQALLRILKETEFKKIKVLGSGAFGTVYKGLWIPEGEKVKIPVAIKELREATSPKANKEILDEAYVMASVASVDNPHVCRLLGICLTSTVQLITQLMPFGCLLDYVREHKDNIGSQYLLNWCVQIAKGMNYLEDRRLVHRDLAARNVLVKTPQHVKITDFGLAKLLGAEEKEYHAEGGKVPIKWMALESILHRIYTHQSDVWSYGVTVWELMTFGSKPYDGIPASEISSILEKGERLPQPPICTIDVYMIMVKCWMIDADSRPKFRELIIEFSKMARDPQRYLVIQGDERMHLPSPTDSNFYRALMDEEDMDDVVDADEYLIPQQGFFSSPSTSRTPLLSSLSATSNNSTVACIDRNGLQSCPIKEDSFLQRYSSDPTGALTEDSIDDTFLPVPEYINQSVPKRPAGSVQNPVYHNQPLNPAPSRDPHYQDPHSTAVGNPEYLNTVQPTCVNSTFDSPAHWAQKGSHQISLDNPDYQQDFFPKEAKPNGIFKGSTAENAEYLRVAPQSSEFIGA

`C=CC(=O)Nc1ccc(F)c(Nc2nc(NC3CCC3)ncc2-c2ccc(C(F)(F)F)cc2)c1` [Compound 181, N-(3-((2-(cyclobutylamino)-5-(4-(trifluoromethyl)phenyl)pyrimidin-4-yl)amino)-4-fluorophenyl)acrylamide] was tested, and the GI50 [1] was > 10 µM, the IC50 (A431 cells; [3]) was > 10 µM and the GI50 [2] was > 10 µM.
Work on `C=CC(=O)Nc1cccc(Oc2cc(Nc3cnn(C)c3)ncc2-c2ccc(C(F)(F)F)cc2)c1` [Compound 182, N-[3-({2-[(1-methyl-1H-pyrazol-4-yl)amino]-5-[4-(trifluoromethyl)phenyl]pyridin-4-yl}oxy)phenyl]prop-2-enamide; trifluoroacetic acid] yielded a GI50 [1] of 9.98 µM, an IC50 (A431 cells; [3]) of 6.11 µM and a GI50 [2] of 7.47 µM.
For `C=CC(=O)Nc1cccc(Oc2nc(Nc3cnn(C)c3)ncc2-c2cncc(C)c2)c1` [Compound 183, N-[3-({2-[(1-methyl-1H-pyrazol-4-yl)amino]-5-(5-methylpyridin-3-yl)pyrimidin-4-yl}oxy)phenyl]prop-2-enamide], the GI50 [1] was 0.32 µM, the IC50 (A431 cells; [3]) was 0.292 µM and the GI50 [2] was 0.286 µM.
`C=CC(=O)Nc1cccc(Oc2nc(Nc3ccccc3Cl)ncc2-c2ccc(C(F)(F)F)cc2)c1` [Compound 189, N-(3-((2-((2-chlorophenyl)amino)-5-(4-(trifluoromethyl)phenyl)pyrimidin-4-yl)oxy)phenyl)acrylamide] was tested, and the GI50 [1] was > 10 µM, the IC50 (A431 cells; [3]) was 8.13 µM and the GI50 [2] was > 10 µM.
Molecule `C=CC(=O)Nc1cccc(Oc2nc(Nc3cnn(C)c3)ncc2C2=CCN(C)CC2)c1` [Compound 190, N-(3-((5-(1-methyl-1,2,3,6-tetrahydropyridin-4-yl)-2-((1-methyl-1H-pyrazol-4-yl)amino)pyrimidin-4-yl)oxy)phenyl)acrylamide] has a GI50 [1] of 8.86 µM, an IC50 (A431 cells; [3]) of 6.76 µM and a GI50 [2] of 9.04 µM.
In the case of `C=CC(=O)Nc1cccc(Oc2nc(Nc3ccc(N4CCN(C)CC4)cc3OC)ncc2-c2ccc(C(F)(F)F)cc2)c1` [Compound 191, N-(3-((2-((2-methoxy-4-(4-methylpiperazin-1-yl)phenyl)amino)-5-(4-(trifluoromethyl)phenyl)pyrimidin-4-yl)oxy)phenyl)acrylamide], the GI50 [1] is reported as > 10 µM, the IC50 (A431 cells; [3]) is reported as 0.898 µM and the GI50 [2] is reported as 9.65 µM.
Work on `C=CC(=O)Nc1cccc(Oc2nc(Nc3cnn(C)c3)ncc2C2=CCOCC2)c1` [Compound 192, N-(3-((5-(3,6-dihydro-2H-pyran-4-yl)-2-((1-methyl-1H-pyrazol-4-yl)amino)pyrimidin-4-yl)oxy)phenyl)acrylamide] yielded a GI50 [1] of 0.267 µM, an IC50 (A431 cells; [3]) of 0.258 µM and a GI50 [2] of 0.241 µM.
For `C=CC(=O)Nc1cccc(Oc2nc(Nc3ccccc3OC)ncc2-c2ccc(C(F)(F)F)cc2)c1` [Compound 193, N-[3-({2-[(2-methoxyphenyl)amino]-5-[4-(trifluoromethyl)phenyl]pyrimidin-4-yl}oxy)phenyl]prop-2-enamide], the GI50 [1] was > 10 µM, the IC50 (A431 cells; [3]) was 8.76 µM and the GI50 [2] was > 10 µM.
With `C=CC(=O)Nc1cccc(Oc2nc(NC3CC3)ncc2-c2ccc(C(F)(F)F)cc2)c1` [Compound 194, N-(3-((2-(cyclopropylamino)-5-(4-(trifluoromethyl)phenyl)pyrimidin-4-yl)oxy)phenyl)acrylamide] the GI50 [1] was > 10 µM, the IC50 (A431 cells; [3]) was > 10 µM and the GI50 [2] was > 10 µM.
With `C=CC(=O)Nc1ccnc(Nc2nc(Nc3cnn(C)c3)ncc2-c2ccc(C(F)(F)F)cc2)c1` [Compound 196, N-(2-((2-((1-methyl-1H-pyrazol-4-yl)amino)-5-(4-(trifluoromethyl)phenyl)pyrimidin-4-yl)amino)pyridin-4-yl)acrylamide] the GI50 [1] was 3.21 µM, the IC50 (A431 cells; [3]) was 7.55 µM and the GI50 [2] was 8.47 µM.
`C=CC(=O)Nc1cccc(Nc2nc(Nc3cnn(C)c3)ncc2-c2ccc(C(F)(F)F)cc2)n1` [Compound 197, N-(6-((2-((1-methyl-1H-pyrazol-4-yl)amino)-5-(4-(trifluoromethyl)phenyl)pyrimidin-4-yl)amino)pyridin-2-yl)acrylamide] was tested, and the GI50 [1] was 0.395 µM, the IC50 (A431 cells; [3]) was 0.373 µM and the GI50 [2] was 0.448 µM.
For `C=CC(=O)Nc1cc(Nc2nc(Nc3cnn(C)c3)ncc2-c2ccc(C(F)(F)F)cc2)c(F)cn1` [Compound 198, N-[5-fluoro-4-({2-[(1-methyl-1H-pyrazol-4-yl)amino]-5-[4-(trifluoromethyl)phenyl]pyrimidin-4-yl}amino)pyridin-2-yl]prop-2-enamide; trifluoroacetic acid], the GI50 [1] was 1.27 µM, the IC50 (A431 cells; [4]) was 2.14 µM and the GI50 [2] was 2.64 µM.
In the case of `C=CC(=O)Nc1cc(Nc2nc(Nc3cnn(C)c3)ncc2-c2ccc(C(F)(F)F)cc2)ccc1N(C)CCN(C)C` [Compound 199, N-(2-{[2-(dimethylamino)ethyl](methyl)amino}-5-({2-[(1-methyl-1H-pyrazol-4-yl)amino]-5-[4-(trifluoromethyl)phenyl]pyrimidin-4-yl}amino)phenyl)prop-2-enamide], the GI50 [1] is reported as 0.239 µM, the IC50 (A431 cells; [4]) is reported as 0.716 µM and the GI50 [2] is reported as 0.704 µM.
`C=CC(=O)Nc1cc(Nc2nc(Nc3cnn(C)c3)ncc2-c2ccc(C(F)(F)F)cc2)ccn1` [Compound 200, N-(4-((2-((1-methyl-1H-pyrazol-4-yl)amino)-5-(4-(trifluoromethyl)phenyl)pyrimidin-4-yl)amino)pyridin-2-yl)acrylamide] showed a GI50 [1] of 6.02 µM, an IC50 (A431 cells; [4]) of 1.28 µM and a GI50 [2] of 2.76 µM.
`C=CC(=O)Nc1cc(F)cc(Nc2nc(Nc3cnn(C)c3)ncc2-c2ccc(Br)cc2)c1` [Compound 207, N-(3-((5-(4-bromophenyl)-2-((1-methyl-1H-pyrazol-4-yl)amino)pyrimidin-4-yl)amino)-5-fluorophenyl)acrylamide] was tested, and the GI50 [1] was 0.032 µM, the IC50 (A431 cells; [4]) was 0.049 µM and the GI50 [2] was 0.031 µM.
`C=CC(=O)Nc1cccc(-n2c3cc(C(F)(F)F)ccc3c3cnc(Nc4cnn(C)c4)nc32)c1` [Compound 209] was tested, and the GI50 [1] was 7.97 µM, the IC50 (A431 cells; [4]) was 5.41 µM and the GI50 [2] was 9.86 µM.
With `C=CC(=O)Nc1ccc(F)c(Nc2nc(Nc3cc(C)ns3)ncc2-c2ccc(C(F)(F)F)cc2)c1` [Compound 211, N-[4-fluoro-3-({2-[(3-methyl-1,2-thiazol-5-yl)amino]-5-[4-(trifluoromethyl)phenyl]pyrimidin-4-yl}amino)phenyl]prop-2-enamide] the GI50 [1] was 0.404 µM, the IC50 (A431 cells; [4]) was 1.6 µM and the GI50 [2] was 0.667 µM.
With `C=CC(=O)Nc1ccc(F)c(Nc2nc(Nc3cc(C)sn3)ncc2-c2ccc(C(F)(F)F)cc2)c1` [Compound 212, N-(4-fluoro-3-((2-((5-methylisothiazol-3-yl)amino)-5-(4-(trifluoromethyl)phenyl)pyrimidin-4-yl)amino)phenyl)acrylamide] the GI50 [1] was 0.884 µM, the IC50 (A431 cells; [4]) was > 10 µM and the GI50 [2] was 1.57 µM.
For `C=CC(=O)Nc1ccc(F)c(Nc2nc(Nc3nc(C)cs3)ncc2-c2ccc(C(F)(F)F)cc2)c1` [Compound 213, N-(4-fluoro-3-((2-((4-methylthiazol-2-yl)amino)-5-(4-(trifluoromethyl)phenyl)pyrimidin-4-yl)amino)phenyl)acrylamide], the GI50 [1] was 1.29 µM, the IC50 (A431 cells; [4]) was 1.82 µM and the GI50 [2] was 3.68 µM.
In the case of `C=CC(=O)Nc1ccc(F)c(Nc2nc(Nc3cn(C)cn3)ncc2-c2ccc(C(F)(F)F)cc2)c1` [Compound 214, N-(4-fluoro-3-((2-((1-methyl-1H-imidazol-4-yl)amino)-5-(4-(trifluoromethyl)phenyl)pyrimidin-4-yl)amino)phenyl)acrylamide], the GI50 [1] is reported as 0.308 µM, the IC50 (A431 cells; [4]) is reported as > 10 µM and the GI50 [2] is reported as 0.543 µM.
